We go through five compounds from ChEMBL document CHEMBL4840359, “N-Terminus to Arginine Side-Chain Cyclization of Linear Peptidic Neuropeptide Y Y4 Receptor Ligands Results in Picomolar Binding Constants” (J Med Chem, 2021).

The source made the active and inactive calls. The rule behind the calls is not given here. Residues, ends and D or L forms follow the SMILES beside them.

The species entered for assay [1] is Homo sapiens. Put plainly: Selectivity ratio, Ki for displacement of [3H]UR-MK299 from human neuropeptide Y Y2 receptor expressed in CHO cells measured after 90 mins by scintillation counting analysis to Ki for displacement of [3H]UR-KK200 from human neuropeptide Y Y4 receptor expressed in CHO-mtAEQ cells co-expressing Gqi5 measured after 90 mins by scintillation counting analysis. Format: cell-based.

In assay [2] the target is T1, Neuropeptide Y receptor type 4 (Homo sapiens, UniProt P50391). Put plainly: Agonist activity at human neuropeptide Y Y4 receptor expressed in HEK293T-ARRB2 cells assessed as stimulation of beta-arrestin 2 recruitment by multimode plate reader. Format: functional, cell-based.
In assay [3] the target is T1, Neuropeptide Y receptor type 4. Nature of the assay: Displacement of [3H]UR-KK200 from human neuropeptide Y Y4 receptor expressed in CHO-mtAEQ cells co-expressing Gqi5 measured after 90 mins by scintillation counting analysis. Format: cell-based.
For assay [4], the target named is T2, Neuropeptide Y receptor type 5 (Homo sapiens, UniProt Q15761).
T2 sequence (Q15761 whole entry): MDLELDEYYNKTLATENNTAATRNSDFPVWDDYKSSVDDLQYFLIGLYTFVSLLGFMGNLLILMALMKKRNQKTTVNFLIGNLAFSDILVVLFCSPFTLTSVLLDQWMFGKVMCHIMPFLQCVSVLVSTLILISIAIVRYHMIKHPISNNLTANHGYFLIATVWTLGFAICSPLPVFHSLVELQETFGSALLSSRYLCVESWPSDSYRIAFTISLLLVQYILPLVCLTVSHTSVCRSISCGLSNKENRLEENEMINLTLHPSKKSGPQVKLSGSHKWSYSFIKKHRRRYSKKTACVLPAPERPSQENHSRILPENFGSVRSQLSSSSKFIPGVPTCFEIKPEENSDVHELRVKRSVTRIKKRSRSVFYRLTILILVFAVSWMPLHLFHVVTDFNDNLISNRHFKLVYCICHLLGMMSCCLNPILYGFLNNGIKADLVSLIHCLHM
Put plainly: Displacement of [3H]propionyl-pNPY from human neuropeptide Y Y5 receptor in human HEC-1B cells measured after 90 mins by scintillation counting analysis. Type of assay: cell-based, HEC-1B cell line.

The target of assay [5] is T3, Neuropeptide Y receptor type 1 (Homo sapiens, UniProt P25929).
T3 sequence (P25929 whole entry): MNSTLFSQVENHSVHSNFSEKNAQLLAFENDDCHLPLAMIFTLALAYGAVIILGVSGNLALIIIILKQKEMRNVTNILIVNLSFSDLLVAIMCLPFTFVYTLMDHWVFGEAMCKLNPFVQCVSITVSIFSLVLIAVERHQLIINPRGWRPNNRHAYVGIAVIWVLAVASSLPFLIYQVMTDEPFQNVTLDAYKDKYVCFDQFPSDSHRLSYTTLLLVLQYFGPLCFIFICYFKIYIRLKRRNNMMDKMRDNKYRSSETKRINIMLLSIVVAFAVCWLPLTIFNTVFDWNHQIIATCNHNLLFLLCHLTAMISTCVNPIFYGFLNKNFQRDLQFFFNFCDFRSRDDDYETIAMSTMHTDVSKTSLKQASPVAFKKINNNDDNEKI
Put plainly: Displacement of [3H]UR-MK299 from human neuropeptide Y Y1 receptor in human SK-N-MC cells measured after 90 mins by scintillation counting analysis. Format: cell-based.

The species named for assay [6] is Homo sapiens. Put plainly: Selectivity ratio, Ki for displacement of [3H]UR-MK299 from human neuropeptide Y Y1 receptor in human SK-N-MC cells measured after 90 mins by scintillation counting analysis to Ki for displacement of [3H]UR-KK200 from human neuropeptide Y Y4 receptor expressed in CHO-mtAEQ cells co-expressing Gqi5 measured after 90 mins by scintillation counting analysis. Type of assay: cell-based.

Assay [7] addresses T1, Neuropeptide Y receptor type 4. Nature of the assay: Intrinsic activity at human neuropeptide Y Y4 receptor expressed in HEK293T-ARRB1 cells assessed as stimulation of beta-arrestin 1 recruitment by multimode plate reader relative to hPP. Format: functional, cell-based.
Assay [8] shares this target. Put plainly: Intrinsic activity at human neuropeptide Y Y4 receptor expressed in CHO-mtAEQ cells co-expressing Gqi5 by calcium aequorin assay. Type of assay: functional, cell-based.
For assay [9], the species on record is Homo sapiens. Put plainly: Selectivity ratio, Ki for displacement of [3H]propionyl-pNPY from human neuropeptide Y Y5 receptor in human HEC-1B cells measured after 90 mins by scintillation counting analysis to Ki for displacement of [3H]UR-KK200 from human neuropeptide Y Y4 receptor expressed in CHO-mtAEQ cells co-expressing Gqi5 measured after 90 mins by scintillation counting analysis. Type of assay: cell-based.

Assay [10] deals with T1, Neuropeptide Y receptor type 4. Put plainly: Agonist activity at human neuropeptide Y Y4 receptor expressed in CHO-mtAEQ cells co-expressing Gqi5 by calcium aequorin assay. Format: functional, cell-based.
Assay [11] deals with T4, Neuropeptide Y receptor type 2 (Homo sapiens, UniProt P49146).
T4 sequence (P49146 whole entry): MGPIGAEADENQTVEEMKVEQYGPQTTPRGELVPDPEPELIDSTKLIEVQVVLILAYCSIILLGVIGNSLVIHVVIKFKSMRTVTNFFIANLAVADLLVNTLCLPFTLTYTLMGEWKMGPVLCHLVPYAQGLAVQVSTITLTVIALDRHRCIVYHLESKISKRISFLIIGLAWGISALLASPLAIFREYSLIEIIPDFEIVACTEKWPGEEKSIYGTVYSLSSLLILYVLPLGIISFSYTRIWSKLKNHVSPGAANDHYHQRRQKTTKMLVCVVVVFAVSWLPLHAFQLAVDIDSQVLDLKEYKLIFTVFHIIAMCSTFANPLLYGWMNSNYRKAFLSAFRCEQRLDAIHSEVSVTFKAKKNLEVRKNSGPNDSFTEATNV
Put plainly: Displacement of [3H]UR-MK299 from human neuropeptide Y Y2 receptor expressed in CHO cells measured after 90 mins by scintillation counting analysis. Type of assay: cell-based.

For assay [12], the target named is T1, Neuropeptide Y receptor type 4. Put plainly: Displacement of [3H]UR-KK200 from human neuropeptide Y Y4 receptor expressed in CHO-mtAEQ cells co-expressing Gqi5 assessed as fold change in affinity measured after 90 mins by scintillation counting analysis relative to Ac-Arg-Tyr-Arg-Leu-Arg-Tyr-NH2. Format: cell-based. Conditions: filed as agonist.
For assay [13] the target is unchanged. Put plainly: Agonist activity at human neuropeptide Y Y4 receptor expressed in HEK293T-ARRB1 cells assessed as stimulation of beta-arrestin 1 recruitment by multimode plate reader. Type of assay: functional, cell-based.
Assay [14] has the same target. Put plainly: Intrinsic activity at human neuropeptide Y Y4 receptor expressed in HEK293T-ARRB2 cells assessed as stimulation of beta-arrestin 2 recruitment by multimode plate reader relative to hPP. Format: functional, cell-based.

T1 sequence (P50391 whole entry): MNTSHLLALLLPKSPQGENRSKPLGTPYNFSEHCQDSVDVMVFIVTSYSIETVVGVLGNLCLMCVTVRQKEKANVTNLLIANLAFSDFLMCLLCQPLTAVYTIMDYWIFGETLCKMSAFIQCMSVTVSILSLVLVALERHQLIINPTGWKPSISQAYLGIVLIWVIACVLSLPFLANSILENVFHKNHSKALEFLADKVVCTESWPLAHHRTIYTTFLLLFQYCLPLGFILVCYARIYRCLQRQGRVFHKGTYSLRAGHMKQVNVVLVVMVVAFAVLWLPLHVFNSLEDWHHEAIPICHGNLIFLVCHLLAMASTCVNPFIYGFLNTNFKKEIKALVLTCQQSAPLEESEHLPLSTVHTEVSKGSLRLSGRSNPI

Turning to `N=C(N)NCCC[C@@H]1NC(=O)CCC(=O)NCCCCNC(=O)NC(=N)NCCC[C@@H](C(=O)N[C@@H](Cc2c[nH]c3ccccc23)C(=O)N[C@@H](CCCNC(=N)N)C(=O)N[C@@H](Cc2ccc(O)cc2)C(N)=O)NC(=O)[C@H](Cc2ccc(O)cc2)NC1=O` (HELM PEPTIDE1{R.Y.[N=C(NCCC[C@H](N[*:1])C(=O)[*:2])N[*:3]].W.R.Y.[am]}|CHEM1{[O=C(CCC(=O)[*:1])NCCCCNC(=O)[*:2]]}$PEPTIDE1,CHEM1,1:R1-1:R1|PEPTIDE1,CHEM1,3:R3-1:R2$$$V2.0), the figures for the Selectivity ratio in [1], in assay [6] and in [9] were more than 6200, more than 1800 and more than 6200, respectively. The EC50 in [2] was 95.5 nM; in assay [10], 191 nM; in assay [13] (read-out: EC50), 130 nM. The Ki is 1.6 nM in assay [3] (read-out: Ki); more than 10000 nM in assay [4] (hec-1b cell line, read-out: Ki); more than 10000 nM in [4] (read-out: pKi (converted)); more than 3000 nM in assay [5] (read-out: Ki); more than 10000 nM in assay [5] (read-out: pKi (converted)); more than 10000 nM in [11] (read-out: Ki). Also, the Ki in assay [11] (read-out: pKi (converted)) is more than 10000 nM. In addition, the Intrinsic activity in assay [7] was determined as 84%; in [8], 61%; in [14], 83%. The fold change (FC) in assay [12] was determined as 2.1.

As to `N=C(N)NCCC[C@@H]1NC(=O)CCC(=O)NCCCNC(=O)NC(=N)NCCC[C@@H](C(=O)N[C@@H](Cc2c[nH]c3ccccc23)C(=O)N[C@@H](CCCNC(=N)N)C(=O)N[C@@H](Cc2ccc(O)cc2)C(N)=O)NC(=O)[C@H](Cc2ccc(O)cc2)NC1=O` (HELM PEPTIDE1{R.Y.[N=C(NCCC[C@H](N[*:1])C(=O)[*:2])N[*:3]].W.R.Y.[am]}|CHEM1{[O=C(CCC(=O)[*:1])NCCCNC(=O)[*:2]]}$PEPTIDE1,CHEM1,1:R1-1:R1|PEPTIDE1,CHEM1,3:R3-1:R2$$$V2.0), the Selectivity ratio in assay [1], in [6] and in [9] was more than 350 in each case. Besides, the EC50 in [2] is 355 nM; in [10] it was 380 nM; in assay [13] (read-out: EC50), 520 nM. Besides, the Ki was 28 nM in [3] (read-out: Ki); 28.8 nM in assay [3] (read-out: pKi (converted)); more than 10000 nM in assay [4] (hec-1b cell line, read-out: Ki); more than 10000 nM in [4] (read-out: pKi (converted)); more than 10000 nM in assay [5] (read-out: pKi (converted)); more than 10000 nM in assay [11] (read-out: Ki). In [11] (read-out: pKi (converted)), the Ki was more than 10000 nM. The Intrinsic activity in assay [7] was found to be 35%; in assay [8], 45%; in assay [14], 47%. Further, the fold change (FC) in assay [12] was -8.2.

With `CC(C)C[C@H](NC(=O)[C@@H]1CCCNC(=N)NC(=O)NCCCCNC(=O)CCC(=O)N[C@@H](CCCCN)C(=O)N[C@@H](Cc2ccc(O)cc2)C(=O)N1)C(=O)N[C@@H](CCCNC(=N)N)C(=O)N[C@@H](Cc1ccc(O)cc1)C(N)=O` (HELM PEPTIDE1{K.Y.[N=C(NCCC[C@H](N[*:1])C(=O)[*:2])N[*:3]].L.R.Y.[am]}|CHEM1{[O=C(CCC(=O)[*:1])NCCCCNC(=O)[*:2]]}$PEPTIDE1,CHEM1,1:R1-1:R1|PEPTIDE1,CHEM1,3:R3-1:R2$$$V2.0), the Selectivity ratio in assay [1] is more than 40000; in assay [6], more than 12000; in assay [9], more than 12000. The EC50 was 12.9 nM in assay [2], 25.7 nM in [10] and 14 nM in assay [13] (read-out: EC50). Moreover, the Ki is 0.24 nM in assay [3] (read-out: Ki); more than 3000 nM in assay [4] (read-out: Ki); more than 3160 nM in assay [4] (read-out: pKi (converted)); more than 3000 nM in [5] (read-out: Ki); more than 3160 nM in assay [5] (read-out: pKi (converted)); more than 10000 nM in [11] (read-out: Ki). Also, the Ki in assay [11] (read-out: pKi (converted)) was more than 10000 nM. The values for the Intrinsic activity in assay [7], in assay [8] and in assay [14] were 61%, 75% and 67%, respectively. Besides, the fold change (FC) in assay [12] turned out to be 14.

For the compound `N=C(N)NCCC[C@H](NC(=O)CCC(=O)O)C(=O)N[C@@H](Cc1ccc(O)cc1)C(=O)N[C@@H](CCCNC(=N)NC(=O)NCCCCN)C(=O)N[C@@H](Cc1c[nH]c2ccccc12)C(=O)N[C@@H](CCCNC(=N)N)C(=O)N[C@@H](Cc1ccc(O)cc1)C(N)=O` (single isomer, unassigned), the Selectivity ratio was more than 60 in assay [1], more than 60 in [6] and more than 200 in [9]. Moreover, the EC50 in assay [2] is 145 nM; in [10], 75.9 nM; in assay [13] (read-out: pEC50 (converted)) it was 85.1 nM. The Ki in assay [3] (read-out: Ki) is 50 nM; in assay [4] (hec-1b cell line, read-out: Ki), more than 10000 nM; in assay [4] (read-out: pKi (converted)), more than 10000 nM; in assay [5] (read-out: Ki) it was more than 3000 nM; in assay [5] (read-out: pKi (converted)), more than 3160 nM; in [11] (read-out: Ki) it was more than 3000 nM. Further, the Ki in assay [11] (read-out: pKi (converted)) was more than 3160 nM. Moreover, the Intrinsic activity result in assay [7], in assay [8] and in [14] was “inactive” each time. In addition, the fold change (FC) in assay [12] is -15.

In the case of `CC(C)C[C@H](NC(=O)[C@@H]1CCC(=O)NCC(=O)N[C@H](CCCNC(=N)N)C(=O)N[C@@H](CCCNC(=N)N)C(=O)N1)C(=O)N[C@@H](CCCNC(=N)N)C(=O)N[C@@H](Cc1ccc(O)cc1)C(N)=O`, the Selectivity ratio in [1], in assay [6] and in assay [9] was more than 100 in each case. Moreover, the EC50 in [2], in [10] and in assay [13] (read-out: pEC50 (converted)) was more than 10000 nM in each case. For the same compound, the Ki is 30 nM in assay [3] (read-out: Ki); 28.8 nM in assay [3] (read-out: pKi (converted)); more than 3000 nM in assay [4] (read-out: Ki); more than 3160 nM in [4] (read-out: pKi (converted)); more than 3000 nM in [5] (read-out: Ki); more than 3160 nM in [5] (read-out: pKi (converted)). The Ki is more than 3000 nM in assay [11] (read-out: Ki) and more than 3160 nM in assay [11] (read-out: pKi (converted)). The Intrinsic activity entry in [7], in [8] and in assay [14] was “inactive” in each case. For the same compound, in [12], the fold change (FC) is -8.8.
